These results are taken from patent US20190175557A1, “COMPOUNDS USEFUL FOR DECREASING INTERFERON LEVEL” (priority 2016, published 2019).

Data set [1] concerns HIV-stimulated pDC. The experiment in a line: Activation markers and cytokine mRNA in HIV-stimulated pDC (RT-qPCR, flow cytometry). In kind it is cell-based, human.
Data set [2] concerns HIV-stimulated pDC. The data set is described as follows: IFN-α / type I IFN production by HIV-stimulated purified pDC (ELISA). In kind it is cell-based, human. (In an ELISA, binding on a coated surface is turned into a signal by an enzyme label.)
The subject of data set [3] is HIV-stimulated pDC. The experiment in a line: TRAIL relocalization to the membrane of HIV-stimulated pDC (3D microscopy). In kind it is cell-based, human. As for the experimental part:
(§1) Cells were then incubated with anti-CXCR4 antibody (Biolegend, San Diego, Calif.) in saturation buffer PBS-BSA 0.5% for membrane staining or in permeabilizing buffer containing 1% saponin with monoclonal antibody anti-TRAIL (Biolegend, San Diego, Calif., USA). […] Nucleus was stained using DAPI (Molecular Probes, Paisley, UK). Slides were mounted with Fluoromount-G (eBioscience, CA, USA) and scanned with a Nikon Eclipse 90i Upright microscope (Nikon Instruments Europe, Badhoevedorp, The Netherlands) using a 100× Plan Apo VC piezo objective (NA 1.4) and Chroma bloc filters (ET-DAPI, ET-GFP) and were subsequently deconvoluted with a Meinel algorithm and 8 iterations and analyzed using Metamorph® (MDS Analytical Technologies, Winnersh, UK). TRAIL/DAPI/Overlay/Confocal plane: Representative 2D focal plan. Overlay with bright: Bright. Reconvolution overlays: 2D projections of the maximum intensity pixels along the Z-axis.
7 pictures were taken from each slide for each Z section framing the nucleus. Quantification of the colocalization in the cytoplasm of purified pDC using Mander's Coefficient was obtained after analyze by JACoP pluging in ImageJ.

The target of data set [4] is T1, CXCR4 (Homo sapiens, UniProt P61073). The data set is described as follows: CXCR4 internalization and co-localization in pDC (microscopy). In kind it is cell-based. The following applies: confocal microscopy. As for the experimental part: as §1, with “Reconvolution overlays: 2D projections of the maximum intensity pixels along the Z-axis.” left out
In other cases, cells were cultured overnight in media alone then were washed in ice-cold PBS-BSA 0.2% and stained with CXCR4 antibody (R&D Systems) for 1 hour at 4° C. […] Data are expressed as the mean percentage ±SEM mean channel fluorescence intensity (MFI) values for residual surface expression and intracellular staining. […]
7 pictures were taken from each slide for each Z section framing the nucleus. Quantification of the colocalization in the cytoplasm of purified pDC using Mander's Coefficient was obtained after analyze by JACoP pluging in ImageJ. […]

Data set [5] deals with pDC. The data set is described as follows: Cytotoxicity of compounds on cultured pDC.
Data set [6] deals with human Flu-activated primary PBMC. The data set is described as follows: cells. Type of data set: cell-based.
Data set [7] concerns flu-exposed human PBMC. Type of data set: cell-based.
Data set [8] has as its system 129S8 mice infected with Influenza A virus strain X31 (H3N2). The following applies: mouse, in vivo.
For data set [9], the target named is H4R (Homo sapiens, UniProt Q9H3N8). Type of data set: cell-based. The following applies: H4R siRNA, human primary pDC.
The test system of data set [10] is human primary PBMC.
Data set [11] concerns the target T1, CXCR4. The following applies: Jurkat cells, 1 mM, 4° C. for 30 min.
Data set [12] deals with T1, CXCR4.
Data set [13] relates to NK cells activated by K562 cells. The experiment in a line: IFN-γ, TNF-α and CD107a expression by NK cells activated by K562 cells (flow cytometry). Type of data set: cell-based. The following applies: treated 1 hour, then activated by K562 cells.
In data set [14] the test system is HIV or LPS stimulated monocytes. The experiment in a line: IFN-γ mRNA in monocytes stimulated with HIV or LPS (RT-qPCR). In kind it is cell-based. The following applies: RT-qPCR normalized to RPL13A. As for the experimental part: Data shown are representative of two independent experiments.
Monocytes were pre-incubated with clobenpropit (CB), IT1t or chloroquine before being activated by HIV and LPS. IFN-γ levels were measured by RT-qPCR and normalized to RPL13A mRNA expression.
Background: Real-time PCR tracks product formation cycle by cycle.

Data set [15] deals with collagen-induced arthritis in DBA1/J mice. The experiment in a line: Therapeutic collagen-induced arthritis model in DBA1/J mice. Type of data set: in vivo, mouse. The following applies: for inhibition of disease severity: Day 28-42, at termination (Day 42); for average AI (Arthritic Index): maximum AI=16. The protocol:
80 DBA1/J mice (male, 7-8 weeks) was received and placed in quarantine for 3 days with daily inspections. Ear tag mice for individual identification.
Individual mouse weights were recorded. Hind paw thickness were recorded by digital caliper. 80 mice subcutaneous were injected with collagen/CFA emulsion (0.05 ml/mouse; 100 μg/mouse collagens in CFA) using a 1 ml syringe fitted with a 25G needle. Mice returned to cages.
80 mice were boosted with collagen/ICFA emulsion. Then their individual weights were recorded.
Mice were scored for signs of arthritis:
7) Calculate Arthritic Index (AI) by addition of individual paw scores and record.
Mice with an AI score within a range of 2-6 were selected for assignment to groups for therapeutic dosing as in Table 4.
Begin intraperitoneal (IP) dosing once daily (QD) according to Table 4.
The compounds clobenpropit (CB) and IT1t were tested. CB and IT1t were stored at 4° C. […] These compounds were doses 7 days per week (Saturday and Sunday included) daily for 14 days.
Mice were weighed, scored for signs or arthritis, and hind paw thickness is measured by digital caliper three-times weekly (Monday, Wednesday and Friday). Any adverse reactions to treatment were recorded.
Termination: AI score were recorded for each limb. The paw thickness of the hind limbs is measured with digital caliper. Mice were anesthetized and exsanguinated into pre-chilled EDTA-tubes.
2) Plasma was assayed by ELISA for IL-1β, IL-6, TRAIL. Then, all limbs were collected.

Data set [16] concerns pristane-induced SLE in Balb/c mice. The data set is described as follows: Pristane-induced systemic lupus erythematosus (SLE) model in Balb/c mice. The following applies: 3, 10, 30 mg/kg IP QD. Type of data set: in vivo, mouse. The protocol: Receive and quarantine (SOP 560) 70 female Balb/C (20-25 g) mice and house in filter-topped cages supplied with autoclaved bedding.
The animals are weighed, ear tagged for individual identification and randomly assigned to 8 treatment groups of 8 animals each and two groups of 3 animals (for pre-tolerance at 30 mg/kg of survival).
The test items compounds clobenpropit (CB) and IT1t are stored at 4° C.
Mouse weights are recorded twice a week, and daily observations for clinical signs.
Collected sera are stored at −80° C. for measurements of autoantibody on weeks 4, 8 and 10. (Predose will kept at −80° C. for potential use). Anti-dsDNA level is a standard screening readout for identifying efficacy of test compounds in a SLE model.
Measurements: weeks 4, 8, 10: (1) autoantibody (anti-dsDNA), collagen and cytokines TNFα, IL-6 and TRAIL by ELISA and (2) ANA antibody by IFA.

A short description of data set [17]: in vitro.
Data set [18] can be described thus: Solubility of test compounds.
Where [19] appears, read: 3 mg/kg IP once daily, at termination (Day 42).
Where [20] appears, read: 10 mg/kg IP once daily, at termination.
The mark [21] stands for this setting: 30 mg/kg IP once daily, at termination.

Read-outs that look alike come from different tables or passages of the source.

T1 sequence (P61073 whole entry): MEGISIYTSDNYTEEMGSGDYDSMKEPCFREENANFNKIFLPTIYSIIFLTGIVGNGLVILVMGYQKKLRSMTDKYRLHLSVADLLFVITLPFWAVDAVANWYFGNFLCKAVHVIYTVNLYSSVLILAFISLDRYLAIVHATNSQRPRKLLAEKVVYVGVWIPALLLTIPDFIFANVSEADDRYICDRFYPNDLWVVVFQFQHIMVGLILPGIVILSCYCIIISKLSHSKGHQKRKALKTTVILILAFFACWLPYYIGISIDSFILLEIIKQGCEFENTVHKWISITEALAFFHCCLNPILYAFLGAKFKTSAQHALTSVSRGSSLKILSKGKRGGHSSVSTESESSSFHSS
Sequence of H4R (Q9H3N8 whole entry): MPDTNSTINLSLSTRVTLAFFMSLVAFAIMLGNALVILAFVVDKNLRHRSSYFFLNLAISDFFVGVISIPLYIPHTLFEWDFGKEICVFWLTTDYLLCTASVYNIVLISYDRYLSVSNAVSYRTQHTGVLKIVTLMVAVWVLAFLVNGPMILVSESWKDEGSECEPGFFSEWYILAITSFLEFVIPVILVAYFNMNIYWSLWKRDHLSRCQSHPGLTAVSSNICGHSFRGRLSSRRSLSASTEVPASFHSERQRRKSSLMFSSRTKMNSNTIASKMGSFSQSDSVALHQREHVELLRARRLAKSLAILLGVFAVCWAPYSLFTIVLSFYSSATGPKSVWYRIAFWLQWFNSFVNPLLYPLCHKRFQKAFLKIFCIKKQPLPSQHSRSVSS

Consider `c1cc(CN2CCCNCCNCCCNCC2)ccc1CN1CCCNCCNCCCNCC1` [AMD3100], for which, in [1], the “type I IFN and TRAIL expression by HIV-activated pDC, compound alone” value is reported as “did not block”. In addition, the “effect on biological activities of histamine and CB on HIV activated-pDC” value in [1] (pre-incubation 1 hour (20 μM) before histamine or CB) is on record as “drastically abolished”.
Turning to `NCCc1cc(=O)oc2c3c4c(cc12)CCCN4CCC3` [FFN-511, FFN511], the “IFN type I production by HIV-stimulated pDC” value in data set [2] (50 μM) is “strongly reduced”. The “iNOS or IL-15 gene expression” value in data set [1] (HIV-1-stimulated pDC, RT-qPCR) is “neither CB nor FFN-511 affected”. Also, in data set [1] (RT-qPCR profiling, normalized to RPL13A), the “transcription of virus-induced genes (TRAIL, IFNs, IL6, IL8, IL10, CXCL10, ISG56) induced in pDC by HIV-1” value was “dramatically inhibited”. Besides, the “TRAIL localization to the cell membrane in HIV-stimulated pDC” value in [3] was “significantly inhibited”. The “co-localization with CXCR4 in pDC” value in [4] is recorded as “strong degree of co-localization”. The “cytotoxic effect on pDC” value in [5] (50 μM) is on record as “without any obvious cytotoxic effect”.
For orientation: EC50 means the concentration that produces a half-maximal response. In the case of `NCCc1c[nH]cn1` [Histamine], in [2] (purified pDC, 10 μM), the “inhibitory effect on pDC activation / IFN-α production by HIV-1” value is “active”. Moreover, in data set [6], the concentration giving a half-maximal response (EC50) stood at 1.4 ± 1 µM. Also, in [7], the “IFN-α/β and IFN-λ2/3 mRNA levels” value is on record as “significantly reduced”. The “IFN-α, IFN-β and IFN-λ2/3 protein production in bronchioalveolar lavage (BAL) fluid” value in data set [8] is “a trend towards IFN reduction that was not statistically significant”. Further, in data set [9], the “effect of H4R knock down on inhibitory activity on IFN-α, IFN-β and TRAIL productions by HIV-stimulated pDC” value was “did not block”. The “Therapeutic index (Ratio TC50/EC50)” value in data set [10] was less than 1500. For the same molecule, the TC50 in data set [10] (human) was less than 2000 µM. Also, in [11], the “binding of the CXCR4 antibody 12G5 on T cells” value is given as “inhibited”. The “effect of CXCR4 gene silencing on the inhibitory effect on type I IFN and TRAIL” value in data set [12] (pDC stimulated by CXCR4-tropic HIV-1) was “suppressed”. In data set [5] (10 μM), the “cytotoxicity on purified pDC” value is on record as “without obvious toxicity”.
In general, solubility refers to the dissolved amount per volume that the medium holds. A high value points to much dissolved substance. In the case of `CC1(C)CN2C(CS/C(=N\C3CCCCC3)NC3CCCCC3)=CSC2=N1` [IT1t], the EC50 in data set [6] (read-out: EC50) was 7.1 ± 1 µM. Further, the “effect on cytokine production of activated pDC compared with CB” value in data set [1] was “stronger effect”. In addition, the “IFN-α, IFN-β and TRAIL expression by HIV-stimulated pDC” value in [1] (1 hour pre-culture, HIV X4) is “inhibited”. Besides, the “IFN-γ, TNF-α and CD107a expression by NK cells” value in [13] is reported as “decrease”. In addition, in data set [14], the “IFN-γ expression by HIV or LPS stimulated monocytes” value was “inhibit”. Also, the “reduction in terminal plasma concentration of IL-1β” value in data set [15] (3 mg/kg IP once daily) stood at 49%; in [15] (10 mg/kg IP once daily), 53%; in data set [15] (30 mg/kg IP once daily), 69%. Also, the “reduction in terminal plasma concentration of TRAIL” value in data set [15] (3 mg/kg IP once daily) turned out to be 62%; in data set [15] (10 mg/kg IP once daily) it was 46%; in [15] (30 mg/kg IP once daily), 51%. In data set [15] (3 mg/kg IP once daily), the “inhibition of disease severity” value was “no amelioratory effect”. The “average AI (Arthritic Index)” value in [15] (setting [19]) is 13.1; in data set [15] (setting [20]), 7.9; in data set [15] (setting [21]), 4.9. In addition, the “reduction in terminal plasma concentration of IL-6” value in [15] (10 mg/kg IP once daily) was 30%; in data set [15] (30 mg/kg IP once daily) it was 66%. The figures for the “reduction in disease severity” value in data set [15] (setting [20]) and in [15] (setting [21]) were 40% and 63%, respectively. The “disease progression over the dose range” value in [15] (3, 10 and 30 mg/kg daily intraperitoneal injection) is “dose-dependent inhibition”. Besides, the “symptoms of pristane-Induced Systemic Lupus Erythematosus” value in [16] is reported as “reduce symptoms”. For the same molecule, the ds-DNA level result in [16] (compared to group 1 (vehicle)) is “inhibition”. In addition, the “Therapeutic index (Ratio TC50/EC50)” value in data set [10] is 33.5. The “type I IFN reduction in CXCR4 siRNA-treated cells” value in data set [12] (pDC stimulated with HIV X4 or HIV R5, active with control siRNA) is “lost its biological activity”. In data set [17] (human), this molecule returned a CC50 of 238 ± 21 µM. The solubility was greater than 50 mg/mL in [18] (PBS, aqueous buffer) and greater than 50 mg/mL in data set [18] (water). Besides, the “toxicity at the efficient concentrations” value in [5] is recorded as “not toxic”. In addition, the “toxicity at higher concentrations” value in data set [5] (diluted in DMSO) is “some toxicity”.
As for `NCCc1c[nH]c2ccc(O)cc12` [Serotonin, serotonin], the CC50 in data set [17] was 1500 ± 54 µM.
Regarding `CCN(CC)CCCC(C)Nc1ccnc2cc(Cl)ccc12` (stereo not drawn) [chloroquine], the “IFN-γ expression by HIV or LPS stimulated monocytes” value in data set [14] is given as “inhibit”.
For `C[C@]12C=CC(=O)C=C1CC[C@@H]1[C@@H]2[C@@H](O)C[C@@]2(C)[C@H]1CC[C@]2(O)C(=O)CO` [prednisolone], in [15] (3 mg/kg IP once daily), the “reduction in terminal plasma concentration of IL-1β” value is on record as 62%, the “reduction in terminal plasma concentration of IL-6” value amounted to 79%, the “reduction in terminal plasma concentration of TRAIL” value came out at 72% and the “inhibition of disease severity” value was 82%. For the same molecule, the “average AI (Arthritic Index)” value in data set [15] (setting [19]) was 2.4.
Regarding `NCCCNCCCCNCCCN` [spermin, spermine], the “IFN-γ, TNF-α and CD107a expression by NK cells” value in data set [13] is “decrease”.
For CXCL12: CXCR4 natural ligand, in data set [1] (62.5 nM, pre-incubation 15 min, 30 min, 60 min), the “IFN-α/β mRNA expressions by HIV stimulated pDC” value is listed as “did not reduce”. Besides, in data set [1] (10 μM), the “type I IFN mRNA expression by HIV stimulated pDC” value is “did not inhibit”.
